{
  "source": "patent US10836725B2",
  "about": "“Modulators of the integrated stress pathway” (Calico Life Sciences LLC, priority 2016, dated 2020)",
  "data": [
    {"system": "ATF4 luciferase reporter", "experiment": "ATF4-Luc assay in HEK293T cells carrying the ATF4 luciferase reporter (in vitro model of VWMD)", "type": "cell-based, human", "settings": "Homo sapiens, HEK-293T, 1 μg/mL tunicamycin, 7 hours, luminescence (One Glo)", "outline": "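Compound at 200 nM and tunicamycin at 1 μg/mL were given together for 7 h to HEK293T cells stably transduced with an ATF4 5′-UTR-driven firefly luciferase reporter. Read-out by luminescence, reported as EC50.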", "units": {"EC50": "µM"}, "values": [
      {"compound": "O=C(COc1ccc(Cl)c(F)c1)NC12CC(C(=O)NCc3ccc(SC(F)(F)F)cc3)(C1)C2", "note": "[Compound 246, 3-[2-(4-chloro-3-fluorophenoxy)acetamido]-N-({4-[(trifluoromethyl)sulfanyl]phenyl}methyl)bicyclo[1.1.1]pentane-1-carboxamide]", "EC50": "> 2"},
      {"compound": "CCCc1cc(CNC(=O)C23CC(NC(=O)COc4ccc(Cl)c(F)c4)(C2)C3)on1", "note": "[Compound 247, 3-[2-(4-chloro-3-fluorophenoxy)acetamido]-N-[(3-propyl-1,2-oxazol-5-yl)methyl]bicyclo[1.1.1]pentane-1-carboxamide]", "EC50": "> 2"},
      {"compound": "COc1ccc(CCNC(=O)C23CC(NC(=O)COc4ccc(Cl)c(F)c4)(C2)C3)cc1Cl", "note": "[Compound 248, 3-[2-(4-chloro-3-fluorophenoxy)acetamido]-N-[2-(3-chloro-4-methoxyphenyl)ethyl]bicyclo[1.1.1]pentane-1-carboxamide]", "EC50": "> 2"},
      {"compound": "COc1ccc(CNC(=O)C23CC(NC(=O)COc4ccc(Cl)c(F)c4)(C2)C3)cc1Cl", "note": "[Compound 249, 3-[2-(4-chloro-3-fluorophenoxy)acetamido]-N-[(3-chloro-4-methoxyphenyl)methyl]bicyclo[1.1.1]pentane-1-carboxamide]", "EC50": "> 2"},
      {"compound": "O=C(COc1ccc(Cl)c(F)c1)NC12CC(C(=O)NCc3cccc(OC(F)F)c3)(C1)C2", "note": "[Compound 250, 3-[2-(4-chloro-3-fluorophenoxy)acetamido]-N-{[3-(difluoromethoxy)phenyl]methyl}bicyclo[1.1.1]pentane-1-carboxamide]", "EC50": "> 2"},
      {"compound": "Cc1ccc(CNC(=O)C23CC(NC(=O)COc4ccc(Cl)c(F)c4)(C2)C3)c(C)n1", "note": "[Compound 251, 3-[2-(4-chloro-3-fluorophenoxy)acetamido]-N-[(2,6-dimethylpyridin-3-yl)methyl]bicyclo[1.1.1]pentane-1-carboxamide]", "EC50": "> 2"},
      {"compound": "O=C(COc1ccc(Cl)c(F)c1)NC12CC(C(=O)NCCn3cccn3)(C1)C2", "note": "[Compound 252, 3-[2-(4-chloro-3-fluorophenoxy)acetamido]-N-[2-(1H-pyrazol-1-yl)ethyl]bicyclo[1.1.1]pentane-1-carboxamide]", "EC50": "> 2"}
    ]}
  ]
}
